From ChEMBL document CHEMBL1201862, “PubChem BioAssay data set” (2004)
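Each compound was tested at five concentrations against cells in 96-well plates for 48 hours. The concentration for 50% growth inhibition is given as GI50.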 Active and inactive are the calls of the source. Rule as the data show it: active = GI50 up to about 1.1 µM and inactive = higher. Where a SMILES comes first, the peptide text is derived from it. Bridges are numbered along the chain shown (N, C = ends). [ ]: non-standard residue; d: D form. The star is where a group is joined. ξ: configuration not given here. PhAc = O=C(Cc1ccccc1)*; ξP = O=C(O)C1CCCN1

Experiments:
Assay in all cases: inhibition of tumour cell growth, NCI panel, 48 h
SK-MEL-2 = test system: SK-MEL-2
SK-MEL-28 = test system: SK-MEL-28
IGROV-1 = test system: IGROV-1
NCI/ADR-RES = test system: NCI/ADR-RES
CAKI-1 = test system: CAKI-1
K562 = test system: K562
BT-549 = test system: BT-549
HL-60 = test system: HL-60
SR = test system: SR
RXF 393 = test system: RXF 393
OVCAR-8 = test system: OVCAR-8
SF-539 = test system: SF-539
T47D = test system: T47D
A549 = test system: A549
EKVX = test system: EKVX
LOX IMVI = test system: LOX IMVI
Hs-578T = test system: Hs-578T
MCF7 = test system: MCF7
HT-29 = test system: HT-29

Row | SMILES | GI50 (SK-MEL-2) | GI50 (SK-MEL-28) | GI50 (IGROV-1) | GI50 (NCI/ADR-RES) | GI50 (CAKI-1) | GI50 (K562) | GI50 (BT-549) | GI50 (HL-60) | GI50 (SR) | GI50 (RXF 393) | GI50 (OVCAR-8) | GI50 (SF-539) | GI50 (T47D) | GI50 (A549) | GI50 (EKVX) | GI50 (LOX IMVI) | GI50 (Hs-578T) | GI50 (MCF7) | GI50 (HT-29)
1 | N#Cc1c(-c2ccc(Cl)cc2)cc(-c2ccc(Nc3ccnc4cc(Cl)ccc34)cc2)nc1N | > 100 µM (inactive) | > 100 µM (inactive) | > 100 µM (inactive) | > 100 µM (inactive) | > 100 µM (inactive) | > 100 µM (inactive) | > 100 µM (inactive) | > 100 µM (inactive) | 5.45 µM (inactive) | > 100 µM (inactive) | 40.1 µM (inactive) | 87.7 µM (inactive) | > 100 µM (inactive) | > 100 µM (inactive) | > 100 µM (inactive) |  |  |  | 
2 | C=[N+](CNC(=O)CNC(=O)C(Cc1ccccc1)NC(=O)OC(C)(C)C)C(=O)CNC(=O)C(Cc1ccccc1)NC(=O)OC(C)(C)C (centres undefined) | > 100 µM (inactive) | > 100 µM (inactive) | > 100 µM (inactive) | > 100 µM (inactive) | > 100 µM (inactive) | > 100 µM (inactive) |  |  | > 100 µM (inactive) | > 100 µM (inactive) | > 100 µM (inactive) | > 100 µM (inactive) | > 100 µM (inactive) | > 100 µM (inactive) | > 100 µM (inactive) | > 100 µM (inactive) | > 100 µM (inactive) | > 100 µM (inactive) | > 100 µM (inactive)
3 | O=Cc1c2c(cc3c1CC1(C3)Cc3cc4c(c(C=O)c3C1)CCCC4)CCCC2 | > 10 µM (inactive) | > 100 µM (inactive) | 23 µM (inactive) | > 31.6 µM (inactive) | 46.5 µM (inactive) | 21.1 µM (inactive) |  | 56.1 µM (inactive) | 10.1 µM (inactive) | > 31.6 µM (inactive) | 23.5 µM (inactive) | > 31.6 µM (inactive) | > 31.6 µM (inactive) | 21.3 µM (inactive) | 23.9 µM (inactive) | 23.6 µM (inactive) | > 31.6 µM (inactive) | > 31.6 µM (inactive) | 18 µM (inactive)
4 | CC(C)(C)OC(=O)C1/C(=C/CO)CN1C(=O)OC(C)(C)C (centres undefined) | > 100 µM (inactive) | > 100 µM (inactive) | > 100 µM (inactive) | > 100 µM (inactive) | > 100 µM (inactive) | > 100 µM (inactive) | > 100 µM (inactive) | > 100 µM (inactive) | 90.8 µM (inactive) |  | > 100 µM (inactive) | > 100 µM (inactive) |  | > 100 µM (inactive) | > 100 µM (inactive) | > 100 µM (inactive) | > 100 µM (inactive) | > 100 µM (inactive) | > 100 µM (inactive)
5 | C[C@]12CCC(O)CC1=CC[C@@H]1[C@@H]2CC[C@]2(C)C(O)[C@H](n3ccnc3)C[C@@H]12 (some centres undefined) | 52.1 µM (inactive) | > 100 µM (inactive) | > 100 µM (inactive) | > 100 µM (inactive) | > 100 µM (inactive) | 12 µM (inactive) |  | 11.1 µM (inactive) | 13.1 µM (inactive) | 55.1 µM (inactive) | > 100 µM (inactive) | 64.1 µM (inactive) |  | 81.7 µM (inactive) | > 100 µM (inactive) | 39.2 µM (inactive) | > 100 µM (inactive) | 51.4 µM (inactive) | 8.17 µM (inactive)
6 | NC(=O)N/N=C\c1ccccc1OCc1cccc(COc2ccccc2/C=N\NC(N)=O)n1 | 28.8 µM (inactive) | > 100 µM (inactive) | 37.4 µM (inactive) | 57.4 µM (inactive) | > 100 µM (inactive) | > 100 µM (inactive) | 26.9 µM (inactive) | > 100 µM (inactive) |  | 12.9 µM (inactive) | 63.1 µM (inactive) | 19.3 µM (inactive) |  | > 100 µM (inactive) | 18 µM (inactive) | 46.1 µM (inactive) | 13.2 µM (inactive) | > 100 µM (inactive) | > 100 µM (inactive)
7 | CCOC(=O)Oc1ccc2[nH]c3c(C)cc(N)c(C)c3c2c1 | > 100 µM (inactive) | > 100 µM (inactive) |  |  | > 100 µM (inactive) | > 100 µM (inactive) |  | 55.5 µM (inactive) | > 100 µM (inactive) |  | > 100 µM (inactive) | > 100 µM (inactive) |  | > 100 µM (inactive) | > 100 µM (inactive) | > 100 µM (inactive) |  |  | > 100 µM (inactive)
8 | O=C1C(Cl)=C(Cl)C(=O)C(CCNc2nccs2)=C1Cl | 27.6 µM (inactive) | 39 µM (inactive) | 14.8 µM (inactive) | 25.5 µM (inactive) | 19.3 µM (inactive) | 22.3 µM (inactive) |  | 43.7 µM (inactive) | 47.2 µM (inactive) | 22.4 µM (inactive) | 29.5 µM (inactive) | 33.7 µM (inactive) | 43.5 µM (inactive) | > 100 µM (inactive) | 24.5 µM (inactive) |  | 33.5 µM (inactive) | 33 µM (inactive) | 35.2 µM (inactive)
9 | COc1cc(/C=C2/C[C@H]3[C@@H]4CC=C5C[C@@H](O)CC[C@]5(C)[C@H]4CC[C@]3(C)NC2=O)cc(OC)c1OC | 22 µM (inactive) | 29.2 µM (inactive) | 11.8 µM (inactive) | 15.8 µM (inactive) | 11.9 µM (inactive) | 40.3 µM (inactive) | 15.2 µM (inactive) | 0.405 µM (active) | 39.8 µM (inactive) | 16 µM (inactive) | 18.9 µM (inactive) | 30.7 µM (inactive) | 24.2 µM (inactive) | 15 µM (inactive) | 15.1 µM (inactive) | 20 µM (inactive) |  | 11.8 µM (inactive) | 24 µM (inactive)
10 | CC(NC(=O)OC(C)(C)C)C(=O)C(N)=O (centres undefined) | > 100 µM (inactive) | > 100 µM (inactive) |  | > 100 µM (inactive) |  | > 100 µM (inactive) |  | > 100 µM (inactive) | 38.6 µM (inactive) |  | > 100 µM (inactive) | > 100 µM (inactive) | > 100 µM (inactive) | > 100 µM (inactive) | > 100 µM (inactive) | > 100 µM (inactive) | > 100 µM (inactive) | > 100 µM (inactive) | 
11 | O=C1/C(=C/c2ccc3c(c2)CCC3)Cc2cc3c(cc21)CCC3 | > 100 µM (inactive) | > 100 µM (inactive) | > 100 µM (inactive) | > 100 µM (inactive) |  | > 100 µM (inactive) | > 100 µM (inactive) | > 100 µM (inactive) | > 100 µM (inactive) | 49.3 µM (inactive) | > 100 µM (inactive) | > 100 µM (inactive) | 3.53 µM (inactive) | > 100 µM (inactive) | > 100 µM (inactive) | > 100 µM (inactive) |  | > 100 µM (inactive) | > 100 µM (inactive)
12 | CSc1nc2c3ccccc3ccn2c1C(=O)N/N=C/c1ccccc1 | > 95.7 µM (inactive) | > 100 µM (inactive) | 33.7 µM (inactive) | 28.9 µM (inactive) | 14.9 µM (inactive) | > 100 µM (inactive) |  | > 100 µM (inactive) | 41.9 µM (inactive) | 32 µM (inactive) | 18.5 µM (inactive) | 1.43 µM (inactive) | 27.9 µM (inactive) | 56.9 µM (inactive) | > 100 µM (inactive) | > 100 µM (inactive) | 30.8 µM (inactive) | > 46.3 µM (inactive) | > 100 µM (inactive)
13 | CC1=CC(=O)C(=CN2C(=O)/C(=C\c3cccnc3)NC2=S)C(=O)O1 | > 100 µM (inactive) | > 100 µM (inactive) | > 100 µM (inactive) | > 100 µM (inactive) | > 100 µM (inactive) |  | > 100 µM (inactive) | 54.3 µM (inactive) |  |  | > 100 µM (inactive) | > 100 µM (inactive) | > 100 µM (inactive) | > 100 µM (inactive) | > 100 µM (inactive) | > 100 µM (inactive) |  | > 100 µM (inactive) | > 100 µM (inactive)
14 | CCCCOc1ccc(S(=O)(=O)/N=C(\NN)Nc2ccc(Cl)cc2)cc1 | > 100 µM (inactive) | 43.7 µM (inactive) | 26.1 µM (inactive) | 24.5 µM (inactive) | 21.5 µM (inactive) | 31.7 µM (inactive) | > 100 µM (inactive) | 31 µM (inactive) | 21.2 µM (inactive) | 16.7 µM (inactive) | 19 µM (inactive) | 17.7 µM (inactive) | 16.2 µM (inactive) | 17.8 µM (inactive) | 45.4 µM (inactive) | 19.8 µM (inactive) |  | 32.1 µM (inactive) | 22.3 µM (inactive)
15 | CCN(CC)C(=O)CCNC(C)Cc1c[nH]c2ccccc12 (centres undefined) | > 100 µM (inactive) | > 100 µM (inactive) | > 100 µM (inactive) | > 100 µM (inactive) | > 100 µM (inactive) | > 100 µM (inactive) |  | > 100 µM (inactive) | > 100 µM (inactive) | > 100 µM (inactive) | > 100 µM (inactive) | > 100 µM (inactive) | > 100 µM (inactive) | > 100 µM (inactive) | > 100 µM (inactive) | > 100 µM (inactive) | > 100 µM (inactive) |  | > 100 µM (inactive)
16 | O=C(Cc1ccccc1)N[C@@H]1COC(=O)C2CCCN2C(=O)[C@@H]2CCCN2C1=O (some centres undefined) (PhAc-[dS]-Pro-[ξP]; ester 1-C) | > 100 µM (inactive) | > 100 µM (inactive) | > 100 µM (inactive) | > 100 µM (inactive) | > 100 µM (inactive) |  |  | > 100 µM (inactive) | > 100 µM (inactive) | > 100 µM (inactive) | > 100 µM (inactive) | > 100 µM (inactive) | > 100 µM (inactive) | > 100 µM (inactive) | > 100 µM (inactive) | > 100 µM (inactive) | > 100 µM (inactive) | > 100 µM (inactive) | > 100 µM (inactive)
